The values that follow come from patent US8557737B2, “Methods of altering poppy characteristics” (priority 2005, dated 2013).

The test system of this experiment is poppy crops. Put plainly: Example 19: field trial, sulfosulfuron, thifensulfuron-methyl and metsulfuron-methyl, morphine crop. It is filed as in vivo, Papaver somniferum. The following applies: applied at M-LRU and LRU-BE; for PLANT HEIGHT: measured some 10 weeks after last application. Here is the method:
All trials were conducted on poppy crops. Seed was treated with Thiram (5.6 g of Thiram 800/kg seed) and Apron (4 g/kg) and sown at a rate of approximately 750 g/ha. Fertilisers were applied at sowing. Most commonly, either 50:50 lime:superphosphate/triple superphosphate at 125 kg/ha, or lime:superphosphate at 250 kg/ha, were mixed with seed and drilled at a depth of 15 mm. In the same operation, NPK (nitrogen:phosphorus:potassium), at various rates, was banded 75 mm below the seed, unless otherwise stated. All crops were subjected to herbicide sprays for weed control, fungicide sprays for disease control, insecticide sprays if appropriate and were irrigated as required.
All spray applications were made with a precision sprayer, using Silvan Lurmark flat-fan, low-drift nozzles (LD110-0015). Spray equipment was calibrated to deliver 153 L water/ha.
At harvest, a 2 m×4 m quadrat was placed in each plot (3 m×6 m, unless otherwise stated) and capsules hand-picked from this area. Capsules were broken up, seed and capsule material separated and weighed. Capsule moisture readings were taken with a moisture meter. Alkaloid yield data were calculated on Pesticide Research Manager (version 5 for Windows) using the formulae below. Briefly, capsule weight was adjusted for moisture to a dry weight, 5% of seed weight was added to this (this amount of capsule material regularly occurs in seed samples after processing) to give a capsule weight per plot. Seed weight was adjusted to 95% of crude weight. Straw weights were determined by multiplying dry capsule weight by 1.3 (estimated amount of stem material in a commercial harvest) and adjusted to 11% moisture. When Lontrel was applied to crops exact capsule and seed weight data were entered. Analyses of variance and a Multiple Range Test were performed on data using Pesticide Research Manager.
Trial to evaluate applications of sulfosulfuron, thifensulfuron-methyl and metsulfuron-methyl, in a morphine crop. Treatment sprays were applied to crop at mid-late run-up and late-run-up/bud-emergence, respectively. Plant heights were measured some 10 weeks after the last application. Lodging was assessed at capsule harvest.

Setting [1] is: 1.35 G/HA + ACTIVATOR .125 % V/V.
Setting [2] is: 4.5 G/HA + ACTIVATOR .125 % V/V.
Where [3] appears, read: 450 MG/HA + ACTIVATOR .125 % V/V.

In the case of `COC(=O)c1sccc1S(=O)(=O)NC(=O)Nc1nc(C)nc(OC)n1` [Compound 4, thifensulfuron-methyl], under setting [1], the “CAPSULE/SEED RATIO” value turned out to be 3.299, the “CROP WEIGHT” value worked out at 0.22 t/ha, the MORPHINE is on record as 4.10 kg/ha and the SEED came to 39 kg/ha. Under setting [1], the STRAW is given as 184 kg/ha, the “STRAW MORPHINE %” value turned out to be 2.23% and the “PLANT HEIGHT” value was found to be 65 cm. Moreover, under setting [2], the “CAPSULE/SEED RATIO” value was 0, the “CROP WEIGHT” value worked out at 0 t/ha, the MORPHINE was 0 kg/ha and the SEED was determined as 0 kg/ha. Moreover, under setting [2], the STRAW worked out at 0 kg/ha, the “STRAW MORPHINE %” value came to 0% and the “PLANT HEIGHT” value turned out to be 0 cm. Also, under setting [3], the “CAPSULE/SEED RATIO” value was 5.209, the “CROP WEIGHT” value was 0.87 t/ha, the MORPHINE is on record as 16.19 kg/ha and the SEED was determined as 103 kg/ha. Besides, under setting [3], the STRAW is on record as 771 kg/ha, the “STRAW MORPHINE %” value is given as 2.10% and the “PLANT HEIGHT” value turned out to be 78 cm.
Consider `CCS(=O)(=O)c1nc2ccccn2c1S(=O)(=O)NC(=O)Nc1nc(OC)cc(OC)n1` [Compound 5, sulfosulfuron], for which, for the setting “60 MG/HA + SWIFT 1 % V/V”, the “CAPSULE/SEED RATIO” value was found to be 2.324, the “CROP WEIGHT” value is “.96 t/ha”, the MORPHINE was 19.19 kg/ha and the SEED was 220 kg/ha. Further, under “60 MG/HA + SWIFT 1 % V/V”, the STRAW amounted to 738 kg/ha, the “STRAW MORPHINE %” value amounted to 2.6% and the “PLANT HEIGHT” value is given as 73 cm. Besides, under “180 MG/HA + SWIFT 1 % V/V”, the “CAPSULE/SEED RATIO” value was found to be 2.898, the “CROP WEIGHT” value amounted to 1.15 t/ha, the MORPHINE is 22.90 kg/ha and the SEED is recorded as 223 kg/ha. Besides, under “180 MG/HA + SWIFT 1 % V/V”, the STRAW stood at 931 kg/ha, the “STRAW MORPHINE %” value came out at 2.46% and the “PLANT HEIGHT” value worked out at 75 cm. Also, under “600 MG/HA + SWIFT 1 % V/V”, the “CAPSULE/SEED RATIO” value is reported as 4.564, the “CROP WEIGHT” value amounted to 0.89 t/ha, the MORPHINE turned out to be 20.74 kg/ha and the SEED is 118 kg/ha. Further, where the note is “600 MG/HA + SWIFT 1 % V/V”, the STRAW came to 774 kg/ha, the “STRAW MORPHINE %” value is 2.68% and the “PLANT HEIGHT” value is 80 cm.
